Assays:
[1] = molecular target: MNK1a (Homo sapiens (Human), UniProt Q9BUB5); test: MNK1 in vitro kinase assay (Assay 3), Z'-LYTE; assay type: biochemical; conditions: for inhibition at 1 µM: compound concentration of 1 μM, read-out: MNK1 % INH
[2] = molecular target: MNK2a (Homo sapiens (Human), UniProt Q9HBH9); test: MNK2a in vitro kinase assay (Assay 2), ADP-Glo; assay type: biochemical; conditions: assay 2; read-out: MNK2 IC50
Excerpt: B. MNK2a In Vitro Kinase Assay (Assay 2)

MNK2a, sequence (Q9HBH9 whole entry): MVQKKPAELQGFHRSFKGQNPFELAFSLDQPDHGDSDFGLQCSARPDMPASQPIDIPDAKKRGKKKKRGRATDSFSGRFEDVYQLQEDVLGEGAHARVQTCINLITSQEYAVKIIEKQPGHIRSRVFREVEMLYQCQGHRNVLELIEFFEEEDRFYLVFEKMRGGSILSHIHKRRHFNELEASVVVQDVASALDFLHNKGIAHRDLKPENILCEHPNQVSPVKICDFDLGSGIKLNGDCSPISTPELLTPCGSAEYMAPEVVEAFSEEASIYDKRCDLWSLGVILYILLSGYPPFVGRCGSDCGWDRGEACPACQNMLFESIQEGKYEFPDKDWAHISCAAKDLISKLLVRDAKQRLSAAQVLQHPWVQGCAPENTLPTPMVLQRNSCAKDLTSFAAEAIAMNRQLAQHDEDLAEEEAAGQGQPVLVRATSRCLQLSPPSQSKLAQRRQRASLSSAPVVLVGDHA
MNK1a, sequence (Q9BUB5 other isoform, or with tags, fused parts or gaps): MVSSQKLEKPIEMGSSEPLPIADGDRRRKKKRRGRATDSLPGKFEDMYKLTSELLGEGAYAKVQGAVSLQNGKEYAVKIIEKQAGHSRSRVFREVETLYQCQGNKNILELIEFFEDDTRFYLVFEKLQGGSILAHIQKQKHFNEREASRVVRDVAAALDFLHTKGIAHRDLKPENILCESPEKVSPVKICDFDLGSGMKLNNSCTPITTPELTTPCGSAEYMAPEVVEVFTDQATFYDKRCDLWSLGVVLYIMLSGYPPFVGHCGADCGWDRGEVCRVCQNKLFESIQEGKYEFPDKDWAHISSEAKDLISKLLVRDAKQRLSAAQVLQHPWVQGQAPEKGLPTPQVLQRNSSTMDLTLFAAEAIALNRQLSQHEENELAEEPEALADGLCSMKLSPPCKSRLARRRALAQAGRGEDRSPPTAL

SMILES	inhibition at 1 µM [1]	IC50 [2]	IC50 [1]
CO[C@@H]1CN(CC(F)F)C[C@H]1Oc1cc(F)ccc1Nc1ncnc2cc(N=S(C)(C)=O)cc(C)c12 [Example 5.4]	35%	44 nM	
CO[C@@H]1CN(CC(F)F)C[C@H]1Oc1ncccc1Nc1ncnc2cc(N=S3(=O)CCCC3)cc(C)c12 [Example 5.5]	85%	13 nM	
CO[C@@H]1CN(C(C)=O)C[C@H]1Oc1cc(F)ccc1Nc1ncnc2cc(N=S(C)(C)=O)cc(C)c12 [Example 6.1]	10%	389 nM	
CO[C@@H]1CN(C(C)=O)C[C@H]1Oc1cc(F)ccc1Nc1ncnc2cc(N=S3(=O)CCCC3)cc(C)c12 [Example 6.2]	31%	185 nM	
CO[C@@H]1CN(C(C)=O)C[C@H]1Oc1ncccc1Nc1ncnc2cc(N=S(C)(C)=O)cc(C)c12 [Example 6.3]	9%	584 nM	
CO[C@@H]1CN(S(C)(=O)=O)C[C@H]1Oc1cc(F)ccc1Nc1ncnc2cc(N=S3(=O)CCCC3)cc(C)c12 [Example 6.4]	62%	20 nM	
CO[C@@H]1CN(S(C)(=O)=O)C[C@H]1Oc1ncccc1Nc1ncnc2cc(N=S3(=O)CCCC3)cc(C)c12 [Example 6.5]	60%	28 nM	
CO[C@@H]1CN(S(C)(=O)=O)C[C@H]1Oc1ncccc1Nc1ncnc2cc(N=S(C)(C)=O)cc(C)c12 [Example 6.6]		80 nM	1400 nM
CO[C@@H]1CN(S(C)(=O)=O)C[C@H]1Oc1cc(F)ccc1Nc1ncnc2cc(N=S(C)(C)=O)cc(C)c12 [Example 6.7]	35%	62 nM	
CO[C@@H]1CN(C(C)=O)C[C@H]1Oc1ncccc1Nc1ncnc2cc(N=S3(=O)CCCC3)cc(C)c12 [Example 6.8]	41%	128 nM	
CC(=O)O[C@H]1CN(C(C)=O)C[C@@H]1Oc1ncccc1Nc1ncnc2cc(N=S3(=O)CCCC3)cc(C)c12 [Example 6.10]	38%	378 nM	
COc1cc(N=S2(=O)CCCC2)cc2ncnc(Nc3ccc(Cl)nc3O[C@H]3COC[C@@H]3O)c12 [Example 8.1]	97%	3 nM	
COc1cc(N=S(C)(C)=O)cc2ncnc(Nc3ccc(Cl)nc3O[C@H]3COC[C@@H]3O)c12 [Example 8.2]	100%	3 nM	
COc1cc(N=S2(=O)CCCC2)cc2ncnc(Nc3cccnc3O[C@H]3COC[C@@H]3O)c12 [Example 8.3]	97%	6 nM	
COc1cc(N=S(C)(C)=O)cc2ncnc(Nc3ccc(F)cc3O[C@H]3COC[C@@H]3O)c12 [Example 9.4]	102%	7 nM	
CCOc1cc(N=S(C)(C)=O)cc2ncnc(Nc3ccc(F)cc3O[C@H]3COC[C@@H]3O)c12 [Example 9.6]	94%	8 nM	
CS(C)(=O)=Nc1cc(OCCF)c2c(Nc3ccc(F)cc3O[C@H]3COC[C@@H]3O)ncnc2c1 [Example 9.8]	75%	39 nM	
COc1cc(N=S(C)(=O)C(C)C)cc2ncnc(Nc3ccc(F)cc3O[C@H]3COC[C@@H]3O)c12 (some centres unmarked) [Example 9.9]	94%	7 nM	
COc1cc(N=S2(=O)CCC2)cc2ncnc(Nc3ccc(F)cc3O[C@H]3COC[C@@H]3O)c12 [Example 9.10]	104%	3 nM	28 nM
COc1cc(N=S(C)(=O)c2cccnc2)cc2ncnc(Nc3ccc(F)cc3O[C@H]3COC[C@@H]3O)c12 (some centres unmarked) [Example 9.14]	84%	13 nM	
COc1cc(N=S(C)(=O)C(C)(C)C)cc2ncnc(Nc3ccc(F)cc3O[C@H]3COC[C@@H]3O)c12 (some centres unmarked) [Example 9.18]	97%	8 nM	
COc1cc(N=S2(=O)CCC(C)C2)cc2ncnc(Nc3ccc(F)cc3O[C@H]3COC[C@@H]3O)c12 (some centres unmarked) [Example 9.24]	97%	4 nM	
COc1cc(N=S2(=O)CCCC2)cc2ncnc(Nc3ccc(F)cc3O[C@H]3COC[C@@H]3O)c12 [Example 9.29]	94%	3 nM	
